Laboratory results as given in patent publication US7670613B2, “Androgen modulators” (Pfizer Inc., priority 2004, dated 2010).
Substitutions are numbered along the chain they refer to. Read-outs that look alike come from different tables or passages of the source.

Key:
androgen receptor = biological target: T1, androgen receptor (Homo sapiens, UniProt P10275, Q868H); assay: AR antagonist cell assay (MDA-MB453-MMTV clone 54-19, luciferase reporter); format: cell-based; conditions: 100 pM DHT, 17 hr, mean of multiple tests
T1 construct: a human breast tumor cell line expressing androgen receptor; endogenous in cells; host or cells: MDA-MB453-MMTV clone 54-19 (only the MMTV-luciferase reporter was transfected)
T1 sequence (P10275 1-920 Q868H): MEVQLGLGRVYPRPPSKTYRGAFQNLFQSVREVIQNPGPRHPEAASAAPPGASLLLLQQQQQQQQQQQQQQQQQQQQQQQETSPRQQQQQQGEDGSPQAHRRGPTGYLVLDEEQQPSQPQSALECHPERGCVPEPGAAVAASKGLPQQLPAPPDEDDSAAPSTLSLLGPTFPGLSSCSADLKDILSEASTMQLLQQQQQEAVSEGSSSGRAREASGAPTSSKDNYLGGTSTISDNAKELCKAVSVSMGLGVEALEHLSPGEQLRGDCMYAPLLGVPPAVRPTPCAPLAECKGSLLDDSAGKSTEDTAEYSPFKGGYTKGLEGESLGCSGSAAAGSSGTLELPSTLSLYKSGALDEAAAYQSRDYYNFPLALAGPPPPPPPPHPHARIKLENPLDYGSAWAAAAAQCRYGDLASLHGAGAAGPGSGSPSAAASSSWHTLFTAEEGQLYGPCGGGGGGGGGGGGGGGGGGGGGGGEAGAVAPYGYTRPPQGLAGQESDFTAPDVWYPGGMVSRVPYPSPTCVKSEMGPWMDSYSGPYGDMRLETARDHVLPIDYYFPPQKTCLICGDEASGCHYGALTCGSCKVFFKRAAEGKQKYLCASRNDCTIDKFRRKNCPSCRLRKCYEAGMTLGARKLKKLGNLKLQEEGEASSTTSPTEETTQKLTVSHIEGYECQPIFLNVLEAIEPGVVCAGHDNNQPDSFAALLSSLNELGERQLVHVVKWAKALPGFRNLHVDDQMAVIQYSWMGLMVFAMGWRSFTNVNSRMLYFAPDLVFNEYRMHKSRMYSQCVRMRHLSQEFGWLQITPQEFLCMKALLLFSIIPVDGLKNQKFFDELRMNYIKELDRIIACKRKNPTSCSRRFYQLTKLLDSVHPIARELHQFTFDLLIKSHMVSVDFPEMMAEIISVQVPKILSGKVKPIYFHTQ
Experimental: The compounds ability to antagonize the effects of androgen on the androgen receptor were determined in a whole cell assay as described immediately below.
Experimental Procedure for AR Antagonist Cell Assay
This cell line is a stable transfected cell line with MDA-MB453 cell background (a human breast tumor cell line expressing androgen receptor). A MMTV minimal promoter containing ARE was first cloned in front of a firefly luciferase reporter gene. Then the cascade was cloned into transfection vector pUV120puro. Electroporation method was used for transfecting MDA-MB-453 cell. Puromycin resistant stable cell line was selected.
Cell Culture Media and Reagents:
Culture medium: DMEM (high glucose, Gibco cat #: 11960-044), 10% FBS, and 1% L-glutamine
Plating medium: DMEM (phenol red free), 10% charcoal treated HyClone serum, 1% L-glutamine
Assay medium: DMEM (phenol red free), 1% charcoal treated HyClone serum, 1% L-glutamine, and 1% penicillin/streptomycin
3× luciferase buffer: 2% beta-mercaptoethanol, 0.6% ATP, 0.0135% luciferine in cell lysis buffer
• 1. Cells are maintained in culture medium, splitting cells when they reach 80-90% confluence • 2. To test compounds, 10,000 cells/well are plated to opaque 96 cell culture plate in 100 ul/well plating medium, culture for overnight at 37° C. in cell culture incubator • 3. Carefully remove plating medium, then add 80 ul/well of pre-warmed assay medium, add 10 ul/well testing compound (final concentration at) 1000 nM, 200 nM, 40 nM, 8 nM, 1.6 nM, and 0.32 nM), incubate at 37° C. for 30 minutes • 4. Add 10 ul/well freshly prepared DHT (final concentration at 100 pM) to each well, incubate at 37° C. for 17 hr (overnight) • 5.
The results are reported as the mean of multiple tests as described below (the numbers of tests are indicated in the footnote). N.D. denotes that the compound was not tested.

hAR = biological target: T2, hAR (Homo sapiens, UniProt P10275); assay: Competitive binding analysis on baculovirus/Sf9 generated hAR extracts with 3H-DHT tracer; conditions: 1 nM 3H-DHT, one hour at 4° C., mean of multiple tests
T2 construct: made in house; host or cells: baculovirus/Sf9 insect cells
T2 sequence (P10275 1-920): T1 sequence (P10275 1-920 Q868H) with H868Q
Experimental: The description below describes how the assay was carried out.
Competitive binding analysis was performed on baculovirus/Sf9 generated hAR extracts in the presence or absence of different concentrations of test agent and a fixed concentration of ^3H-dihydrotestosterone (^3H-DHT) as tracer. This binding assay method is a modification of a protocol previously described (Liao S., et. al. J. Steroid Biochem. 20:11-17 1984). Briefly, progressively decreasing concentrations of compounds are incubated in the presence of hAR extract (Chang et al. P.N.A.S. Vol. 89, pp. […], 1992), hydroxylapatite, and 1 nM ^3H-DHT for one hour at 4° C. Subsequently, the binding reactions are washed three times to completely remove excess unbound ^3H-DHT. hAR bound ^3H-DHT levels are determined in the presence of compounds (i.e. competitive binding) and compared to levels bound when no competitor is present (i.e. maximum binding). Compound binding affinity to the hAR is expressed as the concentration of compound at which one half of the maximum binding is inhibited.

[1] = AR Cell IC50, MDA-MB453-MMTV clone 54-19 cells
[2] = hAR extract, read-out: AR Binding IC50
[3] = MDA-MB453-MMTV clone 54-19 cells, read-out: AR Cell IC50

| Structure (SMILES) | IC50 (androgen receptor; [1]) [nM] | IC50 (hAR; [2]) [nM] | IC50 (androgen receptor; [3]) [nM] | IC50 (hAR; AR Binding IC50, hAR extract) [nM] |
| --- | --- | --- | --- | --- |
| C=CCO[C@H]1CCCC[C@@H]1Oc1ccc(C#N)c(C(F)(F)F)c1 [Example 71, (1S,2S)-4-(2-Allyloxy-cyclohexyloxy)-2-trifluoromethyl-benzonitrile] | 23 | 374 | – | – |
| C[C@H]1CC[C@@H](Oc2ccc(C#N)c(Cl)c2)CC1 [Example 31, 2-Chloro-4-(4-cis-methyl-cyclohexyloxy)-benzonitrile] | 66 | 212 | – | – |
| N#Cc1ccc(O[C@H]2CCCC[C@@H]2c2ccccc2)cc1Cl [Example 55, (1S,2R)-2-Chloro-4-(2-phenyl-cyclohexyloxy)-benzonitrile] | – | – | 421 | 265 |
| N#Cc1ccc(OC2CCCC2)cc1C(F)(F)F [Example 10] | – | 156 | 605 | – |
| N#Cc1ccc(O[C@H]2CC3CC[C@@H]2C3)cc1Cl (stereo in doubt) [Example 24, 4-(R)-(Bicyclo[2.2.1]hept-2-yloxy)-2-chloro-benzonitrile] | 15 | – | – | 106 |
| CCC1CCCCC1Oc1ccc(C#N)c(C(F)(F)F)c1 (centres unmarked) [Example 7, 4-(2-Ethyl-cyclohexyloxy)-2-trifluoromethyl-benzonitrile] | – | 125 | 329 | – |
| CCCCC1(Oc2ccc(C#N)c(Cl)c2)CCCC1 [Example 21, 4-(1-Butyl-cyclopentyloxy)-2-chloro-benzonitrile] | – | 206 | > 1000 | – |
| N#Cc1ccc(OC2CCCC2)cc1Cl [Example 46, 2-Chloro-4-cyclopentyloxy-benzonitrile] | – | – | 18 | 49 |
| N#Cc1ccc(OC2CCCC(O)C2)cc1Cl (centres unmarked) [Example 26, 2-Chloro-4-(3-hydroxy-cyclohexyloxy)-benzonitrile] | 46 | 404 | – | – |
| CCC1CCCCC1Oc1ccc(C#N)c(Cl)c1 (centres unmarked) [Example 22, 2-Chloro-4-(2-ethyl-cyclohexyloxy)-benzonitrile] | – | – | > 1000 | 71 |
| CC1(O)C[C@@H]2C[C@H]1CC2Oc1ccc(C#N)c(C(F)(F)F)c1 (stereo in doubt) [Example 1, 4-(5-Hydroxy-5-methyl-bicyclo[2.2.1]hept-2-yloxy)-2-trifluoromethyl-benzonitrile] | 80 | 655 | – | – |
| C[C@@H]1CCCC[C@@H]1Oc1ccc(C#N)c(Cl)c1 [Example 40, (1S,2R)-2-Chloro-4-(2-methyl-cyclohexyloxy)-benzonitrile] | – | – | 114 | 31 |
| N#Cc1ccc(OC2CC3CCC2C3)cc1Cl (centres unmarked) [Example 62, 4-(Bicyclo[2.2.1]hept-2-yloxy)-2-chloro-benzonitrile] | – | – | < 0.32 | 46 |
| N#Cc1ccc(O[C@H]2CCCCC2c2ccccc2)cc1Cl (stereo in doubt) [Example 33, 2-Chloro-4-(2-(S)-phenyl-(S)-cyclohexyloxy)-benzonitrile] | – | – | 485 | 60 |
| N#Cc1ccc(OC2CCC2)cc1Cl [Example 68, 2-Chloro-4-cyclobutyloxy-benzonitrile] | – | 297 | 103 | – |
| C[C@H]1CCC[C@@H]1Oc1ccc(C#N)c(Cl)c1 [Example 67, (1S,2S)-2-Chloro-4-(2-methyl-cyclopentyloxy)-benzonitrile] | – | – | < 0.32 | 44 |
| C=CCC1(Oc2ccc(C#N)c(C(F)(F)F)c2)CCCCC1 [Example 4, 4-(1-Allyl-cyclohexyloxy)-2-trifluoromethyl-benzonitrile] | – | – | > 1000 | 48 |
| CC(C)[C@H]1CC[C@H](C)C[C@@H]1Oc1ccc(C#N)c(Cl)c1 [Example 47, (1S,2R,5S)-2-Chloro-4-(2-isopropyl-5methyl-cyclohexyloxy)-benzonitrile] | – | 107 | 750 | – |
| N#Cc1ccc(O[C@@H]2CCCC[C@H]2C#N)cc1Cl [Example 50, (1R,2S)-2-Chloro-4-(2-cyano-cyclohexyloxy)-benzonitrile] | – | – | 202 | 17 |
